Results reported in PMC6149822, “A New Series of Pyrrole-Based Chalcones: Synthesis and Evaluation of Antimicrobial Activity, Cytotoxicity, and Genotoxicity” (Molecules : A Journal of Synthetic Chemistry and Natural …, 2017).
Converted amounts (≈) assume the structure as drawn.

How the values were obtained:
[1] = test system: K. pneumoniae (ATCC 700603); assay: Microdilution susceptibility assay (MIC); assay type: cell-based; conditions: Klebsiella pneumoniae, ATCC700603
Protocol: (§1) Compounds 1–10 were screened for their antimicrobial activity against gram-negative bacteria, gram-positive bacteria, and yeasts, listed in Table 1. Bacteria were grown in Mueller-Hinton Broth and yeasts were grown in Sabouraud Dextrose Broth (SDB) during experiments. Overnight cultures were prepared routinely by subculturing of stock culture onto Mueller-Hinton Agar for bacteria and Sabouraud Dextrose Agar for yeasts.
(§2) Microdilution susceptibility assay was used for the determination of antibacterial and anticandidal efficacy of compounds 1–10. Chloramphenicol and ketoconazole were used as positive controls for bacteria and yeasts, respectively. All experiments were designed according to the Clinical Laboratory Standards Institute (CLSI). All chemicals were dissolved in dimethyl sulfoxide (DMSO) to obtain stock solution (10 mg/mL). Two-fold serial dilutions (800, 400, 200...0.78 µg/mL) of the compounds were prepared from stock solutions with dH2O. 100 µL of each solution was transferred to 96-well microtiter plates and 100 µL of 10^6 CFU/mL of bacteria and 2 × 10^3 of CFU/mL yeast were added to related wells. As negative controls, wells including microorganisms without agents and wells including agents without microorganisms were used. The plates were kept at 35 °C for 18–20 h and the growth was determined with resazurin (20 mg/mL). Assays were carried out in triplicate.

E. faecalis (ATCC 29212) = assay: Microdilution susceptibility assay (MIC); assay type: cell-based; conditions: Enterococcus faecalis, ATCC29212
Protocol: as §1, §2

E. faecalis (ATCC 51299) [2] = assay: Microdilution susceptibility assay (MIC); assay type: cell-based; conditions: Enterococcus faecalis, ATCC51299
Protocol: as §1, §2

S. aureus (ATCC 25923) = assay: Microdilution susceptibility assay (MIC); assay type: cell-based; conditions: Staphylococcus aureus, ATCC25923
Protocol: as §1, §2

C. albicans (ATCC 90028) = assay: Microdilution susceptibility assay (MIC); assay type: cell-based; conditions: Candida albicans, ATCC90028
Protocol: as §1, §2

E. coli (ATCC 25922) = assay: Microdilution susceptibility assay (MIC); assay type: cell-based; conditions: Escherichia coli, ATCC25922
Protocol: as §1, §2

[3] = test system: A549 human lung adenocarcinoma cell line; assay: MTT assay; assay type: cell-based; conditions: Homo sapiens, A549
Protocol: (§3) The anticancer effects of compounds 1–10 on A549 human lung adenocarcinoma (ATCC® CCL-185™), HepG2 human hepatocellular carcinoma (ATCC® HB-8065™), and C6 rat glioma (ATCC® CCL107™) cell lines were assessed using 3-(4,5-Dimethylthiazol-2-yl)-2,5-diphenyltetrazolium bromide (MTT) assay, whereas the selectivity of compounds 1–10 was tested using NIH/3T3 mouse embryonic fibroblast cell line (ATCC® CRL-1658™, London, UK). All cell lines were incubated according to the supplier’s recommendations. The cells were seeded as 1 × 10^4 cells into each well of the 96-well plates. MTT assay was performed as previously described. The compounds were tested between the concentrations equal to 1 mM and 0.000316 mM (1.0, 0.316, 0.10, 0.0316, 0.01, 0.00316, 0.001, 0.000316 mM). Stock solutions of compounds were prepared in dimethyl sulfoxide (DMSO) and further dilutions were made with fresh culture medium. The final DMSO concentration was under 1% [34] and cisplatin was used as a positive control. Inhibition % was calculated for each concentration according to the formula below, and IC50 values were determined by plotting a dose–response curve of inhibition % versus compound concentrations tested. All experiments were performed in quadruplicate.Inhibition % = 100 − [(ODtest compound − ODblank/ODsolvent control − ODblank)] × 100(1)

[4] = test system: HepG2 human hepatocellular carcinoma cell line; assay: MTT assay; assay type: cell-based; conditions: Homo sapiens, HepG2
Protocol: as §3

C6 rat glioma cell line = assay: MTT assay; assay type: cell-based; conditions: Rattus norvegicus, C6
Protocol: as §3

[5] = test system: NIH/3T3 mouse embryonic fibroblast cell line; assay: MTT assay; assay type: cell-based; conditions: Mus musculus, NIH3T3, healthy cells for selectivity
Protocol: as §3

C. krusei (ATCC 6258) = assay: Microdilution susceptibility assay (MIC); assay type: cell-based, Candida krusei; conditions: Pichia kudriavzevii, ATCC6258
Protocol: as §1, §2

[6] = test system: C. parapsilosis (ATCC 22019); assay: Microdilution susceptibility assay (MIC); assay type: cell-based, Candida parapsilosis; conditions: Lodderomyces parapsilosis, ATCC22019
Protocol: as §1, §2

C. glabrata (ATCC 90030) = assay: Microdilution susceptibility assay (MIC); assay type: cell-based, Candida glabrata; conditions: Nakaseomyces glabratus, ATCC90030
Protocol: as §1, §2

C. glabrata = assay: ATP luminescence microbial cell viability assay; assay type: cell-based, Candida glabrata; conditions: 24 h treatment, result in words
Protocol: (§4) A model from BioTek Instruments Inc. combined with a BacTiter-Glo^TM Microbial Cell Viability assay (Promega Corp., Madison, WI, USA) was used to provide a sensitive and rapid method for determining the number of viable microbial cells in culture based on quantitation of the ATP present. […] After incubation, cultures were added into the wells (final concentration of bacteria was 5 × 10^5 CFU/mL and 2.5 × 10^6 CFU/mL for yeasts). After adding the BacTiter reagent, incubation time for bacteria and yeasts was 5 min and 15 min, respectively.
(§5) The assay generates a “glow-type” luminescent signal, produced by the luciferase reaction. Briefly, after chemicals and strains were incubated for 24 h, 100 µL of the culture was taken from each well and mixed with the same volume of the BacTiter-Glo™ reagent in a white, opaque-walled microtiter plate. Control wells containing medium without cells were prepared to obtain a value for background luminescence. Cells without compound were used as an ATP-positive control. The microplates were further incubated under agitation for 7 min. Bioluminescence was recorded in a multi-detection microplate reader (BioTek Synergy 2 Multi-Mode Microplate Reader, BioTek Instruments, Winooski, VT, USA). In Figure 3, results were given as percentage of untreated control, which is set at 100%. Experiments were performed in triplicate and each sample was measured in four replicates.

E. faecalis (ATCC 51299) [7] = assay: ATP luminescence microbial cell viability assay; assay type: cell-based, Enterococcus faecalis; conditions: 24 h treatment, result in words
Protocol: as §4, §5

C. krusei cells = assay: Flow cytometry live/dead analysis (TO/PI); assay type: cell-based, Candida krusei; conditions: 25 µg/mL, 4 h
Text: In order to investigate the effects of compounds 7 and 9 on the integrity of C. krusei cells, flow cytometry was used with BD cell viability kits. Live cells are impermeable to dyes such as PI since they have intact membranes. TO is a permeant dye and enters live and dead cells to varying degrees. The fluorescent signal from TO in viable cells allows their enumeration, even when debris in the cell preparation contaminates a scatter gate around the cells. Thus, the combination of these two dyes provides a rapid and reliable method for discriminating live and dead eukaryotic cells, including yeasts. All steps were performed according to manufacturers’ recommendations. Briefly, Candida cells were cultured at 35 °C in SDB until late log phase. The cells were centrifuged and washed with phosphate-buffered saline (PBS) at pH = 7.0. Suspensions containing 2 × 10^3 cells/mL were incubated with compounds 7 and 9, and ketoconazole as a reference drug, for 4 h at 35 °C, with shaking (200 r.p.m.). […] Suspensions of treated and untreated cells were incubated for 30 min in the presence of 2 µL of PI and 2 µL of TO, in the dark, at room temperature. The cell suspensions were analysed in a BD Accuri C6 flow cytometer (Becton-Dickinson, Mansfield, MA, USA). The cell scattergram (forward scatter: FS, side scatter: SS), the autofluorescence (without fluorocrome), and the intensity of fluorescence at FL1 (green fluorescence, 525 nm) and FL2 (red fluorescence, 620 nm) were recorded using a logarithmic scale.

SMILES | MIC [1] | MIC (E. faecalis (ATCC 29212)) | MIC (E. faecalis (ATCC 51299) [2]) | MIC (S. aureus (ATCC 25923)) | MIC (C. albicans (ATCC 90028)) | MIC (E. coli (ATCC 25922)) | IC50 [3] | IC50 [4] | IC50 (C6 rat glioma cell line) | MIC (C. krusei (ATCC 6258)) | MIC [6] | melting point | MIC (C. glabrata (ATCC 90030)) | IC50 [5] | antifungal activity in ATP bioluminescence assay (C. glabrata) | antimicrobial activity in ATP bioluminescence assay (E. faecalis (ATCC 51299) [7]) | Dead Cell % (C. krusei cells) | Live Cell % (C. krusei cells)
Cn1cccc1C(=O)C=Cc1ccc(-c2ccc(Cl)c(Cl)c2)o1 [Compound 10, 1-(1-Methyl-1H-pyrrol-2-yl)-3-(5-(3,4-dichlorophenyl)furan-2-yl)prop-2-en-1-one] | 200 µg/mL (≈ 578 µM) | 400 µg/mL (≈ 1160 µM) | 100 µg/mL (≈ 289 µM) | 200 µg/mL (≈ 578 µM) | 100 µg/mL (≈ 289 µM) | 100 µg/mL (≈ 289 µM) | 346 µg/mL (≈ 999 µM) | 100 µg/mL (≈ 289 µM) | 100 µg/mL (≈ 289 µM) | 200 µg/mL (≈ 578 µM) | 100 µg/mL (≈ 289 µM) | 132 to 133 °C | 200 µg/mL (≈ 578 µM) | 148 µg/mL (≈ 427 µM) |  | antimicrobial activity close to chloramphenicol |  | 
CC(=O)N1CCN(c2ccc(OCC3COC(Cn4ccnc4)(c4ccc(Cl)cc4Cl)O3)cc2)CC1 (stereo not shown) [Ketoconazole, reference compound] |  |  |  |  | 50 µg/mL (≈ 94.1 µM) |  |  |  |  | 50 µg/mL (≈ 94.1 µM) | 50 µg/mL (≈ 94.1 µM) |  | 100 µg/mL (≈ 188 µM) |  |  |  | 18.4% | 81.2%

Further lines, with some results ahead:

MIC [1] | MIC (E. faecalis (ATCC 29212)) | MIC (E. faecalis (ATCC 51299) [2]) | MIC (S. aureus (ATCC 25923)) | MIC (C. albicans (ATCC 90028)) | MIC (E. coli (ATCC 25922)) | IC50 [3] | IC50 [4] | IC50 (C6 rat glioma cell line) | MIC (C. krusei (ATCC 6258)) | MIC [6] | melting point | MIC (C. glabrata (ATCC 90030)) | SMILES | IC50 [5] | antifungal activity in ATP bioluminescence assay (C. glabrata) | antimicrobial activity in ATP bioluminescence assay (E. faecalis (ATCC 51299) [7]) | Dead Cell % (C. krusei cells) | Live Cell % (C. krusei cells)
200 µg/mL (≈ 642 µM) | 200 µg/mL (≈ 642 µM) | 200 µg/mL (≈ 642 µM) | 400 µg/mL (≈ 1280 µM) | 200 µg/mL (≈ 642 µM) | 400 µg/mL (≈ 1280 µM) | 311 µg/mL (≈ 998 µM) | 31 µg/mL (≈ 99.4 µM) | > 311 µg/mL | 200 µg/mL (≈ 642 µM) | 100 µg/mL (≈ 321 µM) | 95 to 96 °C | 200 µg/mL (≈ 642 µM) | Cn1cccc1C(=O)C=Cc1ccc(-c2ccccc2Cl)o1 [Compound 5, 1-(1-Methyl-1H-pyrrol-2-yl)-3-(5-(2-chlorophenyl)furan-2-yl)prop-2-en-1-one] | 45 µg/mL (≈ 144 µM) |  |  |  | 
200 µg/mL (≈ 642 µM) | 200 µg/mL (≈ 642 µM) | 200 µg/mL (≈ 642 µM) | 200 µg/mL (≈ 642 µM) | 200 µg/mL (≈ 642 µM) | 100 µg/mL (≈ 321 µM) | 98 µg/mL (≈ 314 µM) | 98 µg/mL (≈ 314 µM) | 103 µg/mL (≈ 330 µM) | 200 µg/mL (≈ 642 µM) | 100 µg/mL (≈ 321 µM) | 121 to 122 °C | 200 µg/mL (≈ 642 µM) | Cn1cccc1C(=O)C=Cc1ccc(-c2cccc(Cl)c2)o1 [Compound 6, 1-(1-Methyl-1H-pyrrol-2-yl)-3-(5-(3-chlorophenyl)furan-2-yl)prop-2-en-1-one] | 38 µg/mL (≈ 122 µM) |  |  |  | 
200 µg/mL (≈ 578 µM) | 200 µg/mL (≈ 578 µM) | 400 µg/mL (≈ 1160 µM) | 400 µg/mL (≈ 1160 µM) | 200 µg/mL (≈ 578 µM) | 100 µg/mL (≈ 289 µM) | 225 µg/mL (≈ 650 µM) | 106 µg/mL (≈ 306 µM) | 90 µg/mL (≈ 260 µM) | 50 µg/mL (≈ 144 µM) | 100 µg/mL (≈ 289 µM) | 98 to 99 °C | 100 µg/mL (≈ 289 µM) | Cn1cccc1C(=O)C=Cc1ccc(-c2ccc(Cl)cc2Cl)o1 [Compound 8, 1-(1-Methyl-1H-pyrrol-2-yl)-3-(5-(2,4-dichlorophenyl)furan-2-yl)prop-2-en-1-one] | 277 µg/mL (≈ 800 µM) | antifungal activity close to ketoconazole |  |  | 
